In ChEMBL document CHEMBL1132501, “Synthesis and anti-Helicobacter pylori activity of FR182024, a new cephem derivative” (1999):
In brackets after ≈: the same amount, converted by molar mass.

Columns and labels:
Format in all cases: functional
Mus musculus [1] = assay: The compound was evaluated in vivo for the therapeutic efficacy at 0.1 mg/kg in mouse infection model; 5/8
Helicobacter pylori [2] = assay: The compound was evaluated in vitro for the minimum inhibitory concentration against Helicobacter pylori (13001).
Helicobacter pylori [3] = assay: The compound was evaluated in vitro for the minimum inhibitory concentration against Helicobacter pylori (FP1757).
Mus musculus [4] = assay: The compound was evaluated in vivo for the therapeutic efficacy at 0.32 mg/kg in mouse infection model; 8/8
Helicobacter pylori [5] = assay: The compound was evaluated in vitro for the minimum inhibitory concentration against Helicobacter pylori (9005).
Helicobacter pylori [6] = assay: The compound was evaluated in vitro for the minimum inhibitory concentration against Helicobacter pylori (16021).
Mus musculus [7] = assay: The compound was evaluated in vivo for the therapeutic efficacy at 0.32 mg/kg in mouse infection model; 1/8
Mus musculus [8] = assay: The compound was evaluated in vivo for the therapeutic efficacy at 0.1 mg/kg in mouse infection model; 0/8
Mus musculus [9] = assay: The compound was evaluated in vivo for the therapeutic efficacy at 1.0 mg/kg in mouse infection model; 3/8
Mus musculus [10] = assay: The compound was evaluated in vivo for the therapeutic efficacy at 3.2 mg/kg in mouse infection model; 7/8
Mus musculus [11] = assay: The compound was evaluated in vivo for the therapeutic efficacy at 3.2 mg/kg in mouse infection model; 0/8
Mus musculus [12] = assay: The compound was evaluated in vivo for the therapeutic efficacy at 1.0 mg/kg in mouse infection model; 0/8
Mus musculus [13] = assay: The compound was evaluated in vivo for the therapeutic efficacy at 0.32 mg/kg in mouse infection model; 0/8

`Cc1nnc(SC2=C(C(=O)O)N3C(=O)[C@@H](NC(=O)Cc4ccccc4)[C@H]3SC2)s1` was tested, and the Therapeutic efficacy (Mus musculus [1]) was 5, the MIC (Helicobacter pylori [2]) was 0.00078 µg/mL (≈ 0.00174 µM) and the MIC (Helicobacter pylori [3]) was 0.00156 µg/mL (≈ 0.00348 µM). It also gave a Therapeutic efficacy (Mus musculus [4]) of 8, an MIC (Helicobacter pylori [5]) of 0.00625 µg/mL (≈ 0.0139 µM) and an MIC (Helicobacter pylori [6]) of 0.0016 µg/mL (≈ 0.00357 µM).

With `CC1(C)S[C@@H]2[C@H](NC(=O)[C@H](N)c3ccc(O)cc3)C(=O)N2C1C(=O)O` (single isomer, unassigned) [AMOXICILLIN] the Therapeutic efficacy (Mus musculus [7]) was 1, the MIC (Helicobacter pylori [2]) was 0.025 µg/mL (≈ 0.0684 µM) and the Therapeutic efficacy (Mus musculus [8]) was 0. It also gave an MIC (Helicobacter pylori [3]) of 0.0125 µg/mL (≈ 0.0342 µM), a Therapeutic efficacy (Mus musculus [9]) of 3 and a Therapeutic efficacy (Mus musculus [10]) of 7. The MIC (Helicobacter pylori [5]) was 0.05 µg/mL (≈ 0.137 µM) and the MIC (Helicobacter pylori [6]) was 0.025 µg/mL (≈ 0.0684 µM).

In the case of `CC[C@H]1OC(=O)[C@H](C)[C@@H](O[C@H]2C[C@@](C)(OC)[C@@H](O)[C@H](C)O2)[C@H](C)[C@@H](O[C@@H]2O[C@H](C)C[C@H](N(C)C)[C@H]2O)[C@](C)(OC)C[C@@H](C)C(=O)[C@H](C)[C@@H](O)[C@]1(C)O` [CLARITHROMYCIN], the MIC (Helicobacter pylori [2]) was 0.05 µg/mL (≈ 0.0668 µM), the Therapeutic efficacy (Mus musculus [11]) was 0 and the Therapeutic efficacy (Mus musculus [12]) was 0. It also gave an MIC (Helicobacter pylori [3]) of 0.1 µg/mL (≈ 0.134 µM), a Therapeutic efficacy (Mus musculus [13]) of 0 and an MIC (Helicobacter pylori [5]) of 0.2 µg/mL (≈ 0.267 µM). For the same compound, the MIC (Helicobacter pylori [6]) was 50 µg/mL (≈ 66.8 µM).
